The results in this text go back to patent US10375956B2, “Herbicidally active 2-(substituted-phenyl)-cyclopentane-1,3-dione compounds and derivatives thereof” (Syngenta Limited, priority 2013, dated 2019).

What all share (assay type): in vivo
Assay [1] deals with Abutilon theophrasti (ABUTH). The experiment in a line: Test 1 glasshouse assay, post-emergence herbicidal activity. Conditions: 312 h, post-emergence (Example 1B Table 1), after 13 days, read-out: Percentage phytotoxicity ABUTH. How it is done:
(§1) Seeds of a variety of test species are sown in standard soil in pots. After cultivation for one day (pre-emergence) or after 8 days cultivation (post-emergence) under controlled conditions in a glasshouse (at 24/16° C., day/night; 14 hours light; 65% humidity), the plants are sprayed with an aqueous spray solution derived from the formulation of the “technical” (i.e. unformulated) active ingredient in acetone/water (50:50) solution containing 0.5% Tween 20 (polyoxyethylene sorbitan monolaurate, CAS Registry Number 9005-64-5). The test plants are then grown on under controlled conditions in a glasshouse (at 24/16° C., day/night; 14 hours light; 65% humidity) and watered twice daily. After 13 days for pre- or post-emergence, the test is evaluated visually, and an assessed percentage phytotoxicity score is given for each herbicidal application on each plant species (where 100%=total damage to plant; 0%=no damage to plant).
(§2) Test plants include the following: Abutilon theophrasti (ABUTH) and Amaranthus retroflexus (AMARE); these are all dicotyledonous (broadleaved) weeds. Setaria faberi (SETFA), Alopecurus myosuroides (ALOMY), and Echinochloa crus-galli (ECHCG); these are all grassy monocotyledonous weeds. Also: Zea mays (ZEAMX, corn/maize), which can be a grassy weed (“volunteer” corn) in some circumstances.

Assay [2] deals with Setaria faberi (SETFA). The assay is described as above. Conditions: 312 h, post-emergence (Example 1B Table 1), after 13 days, read-out: Percentage phytotoxicity SETFA. How it is done: as §1, §2
The test system of assay [3] is Zea mays (ZEAMX, corn/maize). The description is as above. Conditions: 312 h, post-emergence (Example 1B Table 1), after 13 days, read-out: Percentage phytotoxicity ZEAMX. How it is done:
as §1, §2

For assay [4], the system named is Amaranthus retroflexus (AMARE). Described as above. To be noted: 312 h, post-emergence (Example 1B Table 1), after 13 days, read-out: Percentage phytotoxicity AMARE. How it is done: as §1, §2
Assay [5] concerns Abutilon theophrasti (ABUTH). Briefly: Test 1 glasshouse assay, pre-emergence herbicidal activity. Conditions: 312 h, visual evaluation after 13 days, read-out: Percentage phytotoxicity ABUTH. How it is done: as §1
(§3) Test plants include the following: Abutilon theophrasti (ABUTH), Amaranthus retroflexus (AMARE): these are dicotyledonous (broadleaved) weeds. Setaria faberi (SETFA), Alopecurus myosuroides (ALOMY), Echinochloa crus-galli (ECHCG): these are grassy monocotyledonous weeds. Also: Zea mays (ZEAMX, corn/maize), which can be a grassy weed (“volunteer” corn) in some circumstances.

Assay [6] concerns Setaria faberi (SETFA). The description is as above. To be noted: 312 h, visual evaluation after 13 days, read-out: Percentage phytotoxicity SETFA. How it is done: as §1, §3
The subject of assay [7] is Echinochloa crus-galli (ECHCG). The assay is described as above. To be noted: 312 h, visual evaluation after 13 days, read-out: Percentage phytotoxicity ECHCG. How it is done: as §1, §3
Assay [8] has as its system Zea mays (ZEAMX, corn/maize). The assay is described as above. Conditions: 312 h, visual evaluation after 13 days, read-out: Percentage phytotoxicity ZEAMX. How it is done:
as §1, §3

Assay [9] relates to Amaranthus retroflexus (AMARE). The assay is described as above. Conditions: 312 h, visual evaluation after 13 days, read-out: Percentage phytotoxicity AMARE. How it is done:
as §1, §3

For assay [10], the system named is Alopecurus myosuroides (ALOMY). Described as above. To be noted: 312 h, visual evaluation after 13 days, read-out: Percentage phytotoxicity ALOMY. How it is done:
as §1, §3

The next assay relates to Avena fatua (AVEFA). Briefly: Test 1 glasshouse assay, post-emergence herbicidal activity. Conditions: 312 h, post-emergence (Example 1B Table 2), after 13 days, read-out: Percentage phytotoxicity AVEFA. How it is done: as §1
(§4) Lolium perenne (LOLPE), Alopecurus myosuroides (ALOMY), Echinochloa crus-galli (ECHCG), and Avena fatua (AVEFA); these are all grassy monocotyledonous weeds. Cool climate crop plant: Triticum aestivum (TRZAW, winter wheat).

Assay [11] relates to Triticum aestivum (TRZAW, winter wheat). The description is as above. To be noted: 312 h, post-emergence (Example 1B Table 2), after 13 days, crop plant, read-out: Percentage phytotoxicity TRZAW. How it is done: as §1, §4
For a further assay, the system named is Lolium perenne (LOLPE). Described as above. To be noted: 312 h, post-emergence (Example 1B Table 2), after 13 days, read-out: Percentage phytotoxicity LOLPE. How it is done:
as §1, §4

Assay [12] has as its system Echinochloa crus-galli (ECHCG). The assay is described as above. To be noted: 312 h, after 13 days, read-out: Percentage phytotoxicity ECHCG. How it is done: as §1, §2, §4
The subject of assay [13] is Alopecurus myosuroides (ALOMY). The description is as above. To be noted: 312 h, after 13 days, read-out: Percentage phytotoxicity ALOMY. How it is done: as §1, §2, §4
[14] abbreviates: post-emergence (Example 1B Table 1), 31.25 g/ha.
Setting [15] is: post-emergence (Example 1B Table 1).
Where [16] appears, read: post-emergence (Example 1B Table 2), 62.5 g/ha.
Where [17] appears, read: post-emergence (Example 1B Table 2).
Setting [18] is: post-emergence (Example 1B Table 1), 30 g/ha.

`C#CCC1CC(=O)C(c2c(C)cc(-c3ncc(Cl)cn3)cc2C)C1=O` (stereo not shown) [Compound A5, 2-[4-(5-chloropyrimidin-2-yl)-2,6-dimethylphenyl]-4-prop-2-ynylcyclopentane-1,3-dione]: the pest or weed control at 31.25 g/ha turned out to be 30% in [1] (31.25 g/ha); 100% in the assay on Setaria faberi (SETFA) [2] (31.25 g/ha); 100% in assay [3] (31.25 g/ha); 30% in assay [4] (31.25 g/ha); 100% in [12] (setting [14]); 80% in assay [13] (setting [14]). Besides, the pest or weed control at 250 g/ha was found to be 90% in assay [1]; 100% with Setaria faberi (SETFA) [2]; 100% in assay [3]; 90% in [4]; 70% in assay [5]; 100% with Setaria faberi (SETFA) [6]. The pest or weed control at 250 g/ha (in assay [7]; in assay [8]; in assay [9]; in assay [10]; in the assay on Avena fatua (AVEFA) (250 g/ha); in the assay on Lolium perenne (LOLPE) (250 g/ha)) was 100% throughout. In addition, the pest or weed control at 250 g/ha in assay [12] (setting [15]), in [12] (setting [17]), in assay [13] (setting [15]) and in assay [13] (setting [17]) was 100% in each case. In addition, the pest or weed control at 62.5 g/ha with Avena fatua (AVEFA) (62.5 g/ha) was found to be 100%; in the assay with Lolium perenne (LOLPE) (62.5 g/ha), 90%; in assay [12] (setting [16]), 100%; in [13] (setting [16]), 90%. Besides, the plant injury at 62.5 g/ha in assay [11] (62.5 g/ha) turned out to be 80%. Besides, the plant injury at 250 g/ha in [11] (250 g/ha) was found to be 90%.

Consider `C#CCC1CC(=O)C(c2c(C)cc(-n3cc(Cl)cn3)cc2C)C1=O` (stereo not shown) [Compound A9], for which the pest or weed control at 250 g/ha in assay [1] turned out to be 80%; in the assay with Setaria faberi (SETFA) [2], 100%; in [3] it was 100%; in assay [4], 80%; in assay [5] it was 40%; with Setaria faberi (SETFA) [6] it was 100%. Moreover, the pest or weed control at 250 g/ha came to 100% in assay [7]; 80% in assay [8]; 70% in assay [9]; 70% in assay [10]; 100% in [12] (setting [15]); 100% in assay [13] (setting [15]).

Consider `C#CCC1CC(=O)C(c2cc(-c3ccc(Cl)cc3)ccc2C)C1=O` (stereo not shown) [Compound A16], for which the pest or weed control at 30 g/ha in assay [1] (30 g/ha) was found to be 40%; in the assay on Setaria faberi (SETFA) [2] (30 g/ha) it was 80%; in assay [3] (30 g/ha) it was 80%; in assay [4] (30 g/ha), 0%; in assay [12] (setting [18]), 40%; in assay [13] (setting [18]), 70%. Further, the pest or weed control at 250 g/ha in assay [1] is 40%; in the assay on Setaria faberi (SETFA) [2], 90%; in [3], 60%; in assay [4] it was 60%; in assay [5] it was 40%; with Setaria faberi (SETFA) [6], 90%. The pest or weed control at 250 g/ha was determined as 90% in assay [7]; 80% in assay [8]; 40% in assay [9]; 90% in [10]; 100% in assay [12] (setting [15]); 90% in assay [13] (setting [15]).

Turning to `C#CCC1CC(=O)C(c2cc(-c3ccc(Cl)cn3)ccc2C)C1=O` (stereo not shown) [Compound A17], the pest or weed control at 250 g/ha in assay [1] stood at 10%; in the assay on Setaria faberi (SETFA) [2], 80%; in assay [3], 60%; in assay [4] it was 50%; in assay [5] it was 10%; in the assay with Setaria faberi (SETFA) [6], 70%. For the same compound, the pest or weed control at 250 g/ha in [7] is 70%; in assay [8] it was 60%; in assay [9] it was 10%; in assay [10] it was 70%; in assay [12] (setting [15]), 80%; in [13] (setting [15]) it was 70%.
